Data as given in patent US20240174680A1, “CDK2 INHIBITORS AND METHODS OF USING THE SAME” (Cedilla Therapeutics, Inc., priority 2021, published 2024).

Molecular target: CDK2/Cyclin E1 (Homo sapiens, UniProt P24941)
Assay: CDK2/Cyclin E1 Caliper LabChip EZ Reader mobility shift assay
Type: biochemical
Set-up: purchased Eurofins 14-475
Details: read-out: Caliper Assay (CDK2/CCNE1): IC50
In short: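 Mobility-shift kinase assay: compound titrations preincubated 30 min with enzyme and ATP, reaction started with 5-FAM-QSPKKG-CONH2 peptide. Final 2.5 nM CDK2/Cyclin E1, 100 μM ATP, 1.5 μM peptide, HEPES pH 7.5; stopped with EDTA after 100 min. IC50 from four-parameter fit of normalized conversion ratio.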

Row | SMILES | IC50
1 | CNC(=O)[C@@H](NC(=O)[C@@H]1CN(C(=O)c2cnn(Cc3ccccc3)c2)CC12CN(C(=O)C1(C)CC1)C2)[C@@H](C)OCc1ccccc1 [I-67A, (S)-6-(1-benzyl-1H-pyrazole-4-carbonyl)-N-((2S,3R)-3-(benzyloxy)-1-(methylamino)-1-oxobutan-2-yl)-2-(1-methylcyclopropane-1-carbonyl)-2,6-diazaspiro[3.4]octane-8-carboxamide] | 100 to 1000 nM
2 | CNC(=O)[C@@H](NC(=O)[C@H]1CN(C(=O)c2cnc(C(C)(C)C)s2)CC12CN(C(=O)[C@H]1CC1(C)C)C2)[C@@H](C)OCC1CCCCC1 [I-229B] | > 10000 nM
3 | CNC(=O)[C@H](CCCc1ccccc1)NC(=O)[C@H]1CN(C(=O)c2cnn(Cc3ccccc3)c2)CC12CN(C(=O)[C@H]1CC1(C)C)C2 [I-101B] | > 10000 nM
4 | CNC(=O)[C@@H](NC(=O)[C@@H]1CN(Cc2ccccn2)CC12CN(C(=O)[C@H]1CC1(C)C)C2)[C@@H](C)OCc1ccccc1 [I-40A] | > 10000 nM
5 | CNC(=O)[C@@H](NC(=O)[C@H]1CN(C(=O)c2cnn(Cc3ccccc3)c2)CC12CN(C(=O)C1(C#N)CC1)C2)[C@@H](C)OCc1ccccc1 [I-73B] | > 10000 nM
6 | CNC(=O)[C@@H](NC(=O)[C@@H]1CN(C(=O)c2cnc(Cl)s2)CC12CN(C(=O)[C@H]1CC1(C)C)C2)[C@@H](C)OCC1CCCCC1 [I-189A] | 100 to 1000 nM
7 | CNC(=O)[C@@H](NC(=O)[C@H]1CN(C(=O)C2CCNC2)CC12CN(C(=O)[C@H]1CC1(C)C)C2)[C@@H](C)OCc1ccccc1 (stereo partly shown) [I-70B] | > 10000 nM
8 | CNC(=O)[C@@H](NC(=O)[C@@H]1CN(C(=O)c2cnn(Cc3ccccc3)c2)CC12CN(C(=O)C1(C#N)CC1)C2)[C@@H](C)OCc1ccccc1 [I-73A] | 1000 to 10000 nM
9 | CNC(=O)[C@@H](NC(=O)[C@H]1CN(C(=O)c2cccnc2)CC12CN(C(=O)[C@H]1CC1(C)C)C2)[C@@H](C)OCc1ccccc1 [I-42B] | > 10000 nM
10 | COc1cccc(CNC(=O)[C@H]2CN(C(=O)c3cnn(Cc4ccccc4)c3)CC23CN(C(=O)[C@H]2CC2(C)C)C3)n1 [I-126B] | > 10000 nM
11 | CNC(=O)[C@@H](NC(=O)[C@H]1CN(C(=O)c2cnn(Cc3ccc(F)cc3)c2)CC12CN(C(=O)[C@H]1CC1(C)C)C2)[C@@H](C)OCc1ccc(F)cc1 [I-136B] | 100 to 1000 nM
12 | CNC(=O)[C@@H](NC(=O)[C@H]1CN(C(=O)c2cnc(CC3CC3)s2)CC12CN(C(=O)[C@H]1CC1(C)C)C2)[C@@H](C)OCC1CCCCC1 [I-177B] | 1000 to 10000 nM
13 | CNC(=O)[C@@H](NC(=O)[C@H]1CN(C(=O)c2cnn(Cc3ccccc3)c2)CC12CN(C(=O)CC(C)C)C2)[C@@H](C)OCc1ccccc1 [I-69B] | > 10000 nM
14 | CNC(=O)[C@@H](NC(=O)[C@H]1CN(C(=O)c2cnn(CC3CC3)c2)CC12CN(C(=O)CC1CC1)C2)[C@@H](C)OCc1ccccc1 [I-53B] | > 10000 nM
15 | CNC(=O)[C@@H](NC(=O)[C@@H]1CN(C(=O)c2cnn(Cc3ccccc3)c2)CC12CN(C(=O)[C@H]1CC1(C)C)C2)[C@@H](C)OCC1(C(F)(F)F)CC1 [I-205A] | 100 to 1000 nM
16 | CC1(C)C[C@@H]1C(=O)N1CC2(CN(C(=O)c3cnn(Cc4ccccc4)c3)C[C@H]2C(=O)Nc2ccc(Cc3ccccc3)cc2)C1 [I-84A] | 1000 to 10000 nM
17 | CNC(=O)[C@@H](NC(=O)[C@H]1CN(C(=O)c2cnc(C3CC3)s2)CC12CN(C(=O)[C@H]1CC1(C)C)C2)[C@@H](C)OCC1CCCCC1 [I-178B] | > 10000 nM
18 | CNC(=O)[C@H](CCCC1CCCCC1)NC(=O)[C@@H]1CN(C(=O)c2cnn(Cc3ccccc3)c2)CC12CN(C(=O)[C@H]1CC1(C)C)C2 [I-155A] | 100 to 1000 nM
19 | CNC(=O)[C@@H](NC(=O)[C@H]1CN(C(=O)c2cnc[nH]2)CC12CN(C(=O)[C@H]1CC1(C)C)C2)[C@@H](C)OCc1ccccc1 [I-44B] | > 10000 nM
20 | CNC(=O)[C@@H](NC(=O)[C@@H]1CN(C(=O)c2scnc2Cl)CC12CN(C(=O)[C@H]1CC1(C)C)C2)[C@@H](C)OCC1CCCCC1 [I-157A] | 10 to 100 nM
21 | C[C@@H](OCC1CCC(F)(F)CC1)[C@H](NC(=O)[C@@H]1CN(C(=O)c2cnn(Cc3ccc(F)cc3)c2)CC12CN(C(=O)[C@H]1CC1(C)C)C2)C(=O)N1CCC(F)(F)CC1 [I-164A] | ≤ 10 nM

Second part, the compound after the results:

Row | IC50 | SMILES
22 | > 10000 nM | COc1ccc(CNC(=O)[C@@H]2CN(C(=O)c3cnn(Cc4ccccc4)c3)CC23CN(C(=O)[C@H]2CC2(C)C)C3)nn1 [I-371]
23 | ≤ 10 nM | C[C@@H](OCC1CCC(F)(F)CC1)[C@H](NC(=O)[C@@H]1CN(C(=O)c2cn[nH]c2)CC12CN(C(=O)[C@H]1CC1(C)C)C2)C(=O)N1CCOCC1 [I-301, (S)—N-((2S,3R)-3-((4,4-difluorocyclohexyl)methoxy)-1-morpholino-1-oxobutan-2-yl)-2-((S)-2,2-dimethylcyclopropane-1-carbonyl)-6-(1H-pyrazole-4-carbonyl)-2,6-diazaspiro[3.4]octane-8-carboxamide]
24 | 1000 to 10000 nM | CC1(C)C[C@@H]1C(=O)N1CC2(CN(C(=O)c3cnn(Cc4ccccc4)c3)C[C@H]2C(=O)N2CCC(OCc3ccccc3)CC2)C1 [I-214]
25 | ≤ 10 nM | Cc1nc(C)c(C(=O)N2C[C@@H](C(=O)N[C@H](C(=O)N3CCC(C(F)(F)F)CC3)[C@@H](C)OCC34CCC(CC3)OC4)C3(C2)CN(C(=O)[C@H]2CC2(C)C)C3)s1 [I-456]
26 | ≤ 10 nM | CNC(=O)[C@@H](NC(=O)[C@@H]1CN(C(=O)c2cncs2)CC12CN(C(=O)[C@H]1CC1(C)C)C2)[C@@H](C)OC[C@H]1CC[C@@H](C)CC1 [I-354]
27 | ≤ 10 nM | COC[C@H]1CCCN(C(=O)[C@@H](NC(=O)[C@@H]2CN(C(=O)c3cncs3)CC23CN(C(=O)[C@H]2CC2(C)C)C3)[C@@H](C)OCc2ccc(F)cc2)C1 [I-318]
28 | 10 to 100 nM | COC[C@H]1CCCN(C(=O)[C@@H](NC(=O)[C@@H]2CN(C(=O)c3cncs3)CC23CN(C(=O)[C@H]2CC2(C)C)C3)[C@@H](C)OC[C@H]2CC[C@@H](OC)CC2)C1 [I-408]
29 | 100 to 1000 nM | CC1(C)C[C@@H]1C(=O)N1CC2(CN(C(=O)c3cnn(Cc4ccccc4)c3)C[C@H]2C(=O)N2CC[C@@H](OCC3CCCCC3)C2)C1 [I-235]
30 | ≤ 10 nM | C[C@@H](OCC1CCC2(CCC2)CC1)[C@H](NC(=O)[C@@H]1CN(C(=O)c2cnn(Cc3ccccc3)c2)CC12CN(C(=O)[C@H]1CC1(C)C)C2)C(=O)N1CCC(c2cnc[nH]2)CC1 [I-444]
31 | > 10000 nM | Cc1nc(C)c(C(=O)N2C[C@@H](C(=O)NC(c3cccc(C4CCOCC4)n3)C(C)(C)O)C3(C2)CN(C(=O)[C@H]2CC2(C)C)C3)s1 (stereo partly shown) [I-437]
32 | 100 to 1000 nM | CNC(=O)[C@@H](NC(=O)[C@@H]1CN(C(=O)c2cncs2)CC12CN(C(=O)[C@H]1CC1(C)C)C2)[C@@H](C)OCC1CC2CCC1O2 (stereo partly shown) [I-462]
33 | ≤ 10 nM | C[C@@H](OCC1CCCCC1)[C@@H](COC1CCCCC1)NC(=O)[C@@H]1CN(C(=O)c2cncs2)CC12CN(C(=O)[C@H]1CC1(C)C)C2 [I-308]
34 | > 10000 nM | CNC(=O)[C@@H](NC(=O)[C@@H]1CN(C(=O)c2cncs2)CC12CN(CC1CCOC1)C2)[C@@H](C)OCC12CCC(CC1)OC2 (stereo partly shown) [I-345]
35 | 100 to 1000 nM | C[C@@H](OCC1(C(F)(F)F)CC1)[C@H](NC(=O)[C@@H]1CN(C(=O)c2cncs2)CC12CN(C(=O)[C@H]1CC1(C)C)C2)C(=O)N1CCC(F)(F)CC1 [I-287]
36 | 10 to 100 nM | CNC(=O)[C@@H](NC(=O)[C@@H]1CN(C(=O)c2cnn(Cc3ccccc3)c2)CC12CN(C(=O)[C@H]1CC1(C)C)C2)[C@@H](C)OC[C@H]1CC[C@@H](O)CC1 [I-424]
37 | 10 to 100 nM | C[C@@H](OCc1ccccc1)[C@H](NC(=O)C1CN(C(=O)c2cnn(Cc3ccccc3)c2)CC12CN(C(=O)[C@H]1CC1(C)C)C2)C(=O)N1CCNCC1 (stereo partly shown) [I-32]
38 | > 10000 nM | COCC1(NC(=O)[C@H]2CN(C(=O)c3cnn(Cc4ccccc4)c3)CC23CN(C(=O)[C@H]2CC2(C)C)C3)CC1 [I-250]
39 | 1000 to 10000 nM | COC[C@H]1CCCN(C(=O)[C@@H](NC(=O)[C@@H]2CN(C(=O)c3cnn(Cc4ccccc4)c3)CC23CN(C(=O)[C@H]2CC2(C)C)C3)[C@@H](C)OC)C1 [I-283]
40 | ≤ 10 nM | COC(=O)[C@@H](NC(=O)[C@@H]1CN(C(=O)c2cnn(Cc3ccccc3)c2)CC12CN(C(=O)[C@H]1CC1(C)C)C2)[C@@H](C)OCC1CCCCC1 [I-475]
41 | 100 to 1000 nM | C[C@@H](OCC1CCOCC1)[C@@H](COC(F)(F)F)NC(=O)[C@@H]1CN(C(=O)c2cncs2)CC12CN(C(=O)[C@H]1CC1(C)C)C2 [I-428]
42 | 1000 to 10000 nM | COC[C@H]1CCCN(C(=O)[C@@H](C)NC(=O)[C@@H]2CN(C(=O)c3cncs3)CC23CN(C(=O)[C@H]2CC2(C)C)C3)C1 [I-324]
43 | 1000 to 10000 nM | CO[C@H](C)[C@H](NC(=O)[C@@H]1CN(C(=O)c2cnn(Cc3ccccc3)c2)CC12CN(C(=O)[C@H]1CC1(C)C)C2)C(=O)N1CCC(CN)CC1 [I-306]
44 | 1000 to 10000 nM | Cc1cc(C(=O)N2CC(C(=O)N[C@H](C(=O)N3CCCCC3)[C@@H](C)OCC3CCCCC3)C3(C2)CN(C(=O)[C@H]2CC2(C)C)C3)[nH]n1 (stereo partly shown) [I-264]
45 | ≤ 10 nM | Cc1cc(C(=O)N2CC(C(=O)N[C@H](C(=O)N3CCCCC3)[C@@H](C)OCC3CCCCC3)C3(C2)CN(C(=O)[C@H]2CC2(C)C)C3)sn1 (stereo partly shown) [I-311]
46 | 10 to 100 nM | C[C@@H](OCC1CCCCC1)[C@H](NC(=O)[C@@H]1CN(C(=O)c2cnn(Cc3ccccc3)c2)CC12CN(C(=O)[C@H]1CC1(C)C)C2)C(=O)N1CCC[C@@H]1CN [I-238]
47 | 1000 to 10000 nM | CN(C)C(=O)C(NC(=O)[C@@H]1CN(C(=O)c2cncs2)CC12CN(C(=O)C(C)(C)C1CC1)C2)c1cccc(C2CCOCC2)n1 (stereo partly shown) [I-340]
48 | ≤ 10 nM | C[C@@H](OCC1CCC(F)(F)CC1)[C@H](NC(=O)[C@@H]1CN(C(=O)c2cncs2)CC12CN(C(=O)[C@H]1CC1(C)C)C2)C(=O)N1CCC[C@H](COC(F)(F)F)C1 [I-326]
49 | ≤ 10 nM | C[C@@H](OCC1CCCCC1)[C@H](NC(=O)[C@@H]1CN(C(=O)c2cncs2)CC12CN(C(=O)[C@H]1CC1(C)C)C2)C(=O)N1CCNCC1 [I-328]
